Laboratory results reported in US6569638B1, “Method for screening compounds for the treatment of neoplasia” (Cell Pathways, Inc, priority 2000, dated 2003).
Where two headings read alike, the source gives them in different places. One block for each molecule: values may come before it.

What was measured:
[1] = target: T1, GST-cGB-PDE5 fusion protein (cGMP binding sites of human PDE5A) (Homo sapiens, UniProt O76074); experiment: cGMP binding assay (3H-cGMP competition)
T1 construct: made in house; host or cells: E. coli BL21 (DE3)

[2] = test system: JNK1 in SW480 colon cancer cells; experiment: JNK1 immunoprecipitation in vitro kinase assay with GST-c-Jun(1-79); format: cell-based, human; details: for JNK1 activation by cGMP modulators: SW480 cells, one hour, dbcGMP 500 μM, dbcAMP 500 μM, YC-1 50 μM, MY-5445 50 μM, dipyridamole 10 μM; for inhibition of Compound B-induced JNK1 activation: SW480 cells pre-treated 2 μM for 2 hours, then Compound B 1 or 10 μM for one hour
Procedure: The cells were lysed, JNK1 immunoprecipitated with an anti-JNK1 antibody, and the immunoprecipitate (“IP”) assayed for in vitro kinase activity with GST-c-Jun(1-79) as the substrate. The experiments were repeated three times with similar results. Fold activation was measured using a Phosphor Imager.
FIG. 1B: SW480 cells were treated with Compound A (1 μM) for the indicated time periods and in vitro JNK1 kinase activity was determined as described above.
FIG. 2A SW480 cells were treated with either DMSO (−) or Compound A, 0.1 μM; dbcGMP, 500 μM; YC-1, 50 μM; MY-5445, 50 μM; dipyridamole, 10 μM or dbcAMP, 500 μM for one hour. The cells were lysed, JNK1 immunoprecipitated, and the IP assayed for in vitro kinase activity as described in FIG. 1A.
FIG. 2B SW480 cells were pre-treated with either DMSO, KT5720 (2 μM) or Rp-8-pCPT-cGMPS (2 μM) for 2 hours and then treated with Compound B (0, 1 or 10 μM) for one hour. The cells were lysed and assayed for JNK1 activation in the IP as described above.
These concentrations were chosen since they provided optimal induction of apoptosis. Endogenous JNK1 was immunoprecipitated with anti-JNK1 antibody and in vitro kinase assays were performed with GST-c-Jun(1-79) as the substrate. […]
However, the precise role of PKG in signal transduction pathways is not known. […] As a control, KT5720 was used as a protein kinase A (“PKA”)-specific inhibitor. SW480 cells were treated with either DMSO, KT5720 (2 μM) or Rp-8-pCPT-cGMPS (2 μM) for 2 hours and then treated with either DMSO or Compound B (1 or 10 μM) for one hour. Cell extracts were collected and assayed for JNK1 activation.

native bovine PDE5 = native bovine PDE5 (Bos taurus, UniProt Q28156); details: read-out: Kd of cGMP binding; cited from earlier work
PARP in SW480 cells = experiment: PARP cleavage by Western blot; format: cell-based, human; details: SW480 cells pre-incubated 2 μM for 2 hours, then Compound A 1 μM 2 days
Procedure: SW480 cells were pre-treated with either DMSO (−) or Rp-8-pCPT-cGMPS (2 μM) for 2 hours and then treated with either DMSO (−) or Compound A (1 μM). Both the floating and attached cells were collected after 2 days, and the cell lysates were assayed for PARP cleavage by Western blotting with anti-PARP antibody. Fold increase in PARP cleavage was measured by densitometry of the 85 kD fragment.
Finally, we investigated whether activation of the PKG pathway is required for the induction of apoptosis by SAANDs. SW480 cells were treated with either DMSO or the PKG inhibitor Rp-8-pCPT-cGMPS (2 μM) for 2 hours and then the cells were treated with either DMSO or Compound A (1 μM) for 2 days. Both the floating and attached cells were collected, and the cell lysates were assayed for poly (ADP-ribose) polymerase (PARP) cleavage by Western blotting with an anti-PARP antibody. PARP is a 116 kD nuclear enzyme that converts NAD to nicotinamide and protein-linked ADP-ribose polymers, which are important for DNA repair and genomic maintenance. In cells that are undergoing apoptosis the 116 kD PARP protein is cleaved by caspase-3 into 85 and 25 kD fragments, thus resulting in loss of normal PARP function. This inactivation of PARP apparently prevents depletion of cellular levels of NAD and ATP, which are thought to be required for later events in apoptosis.

[3] = test system: PKG in SW480 colon cancer cells; experiment: PKG assay of drug-treated cell lysates (GST-cGB-PDE5 solid phase substrate); format: cell-based, human; details: 48 hrs, exisulind 200, 400, 600 μM, E4021 0.1, 1, 10 μM, with and without added cGMP
Procedure: To test the effect of cGMP-specific PDE inhibition on neoplasia containing the APC mutation, SW480 colon cancer cells were employed. SW 480 is known to contain the APC mutation. About 5 million SW480 cells in RPMI 5% serum are added to each of 8 dishes:
2-10 cm dishes—30 μL DMSO vehicle control (without drug),
3-10 cm dishes—200 μM, 400 μM, 600 μM exisulind in DMSO, and
The dishes are incubated for 48 hrs at 37° C. in 5% CO2 incubator.
The liquid media are aspirated from the dishes (the cells will attach themselves to the dishes). The attached cells are washed in each dish with cold PBS, and 200 μL cell lysis buffer (i.e., 50 mM Tris-HCl, 1% NP-40, 150 mM NaCl, 1 mM EDTA, 1 mM Na3VO4, 1 mM NaF, 500 μM IBMX with proteinase inhibitors) is added to each dish. Immediately after the cell lysis buffer is added, the lysed cells are collected by scraping the cells off each dish. The cell lysate from each dish is transferred to a microfuge tube, and the microfuge tubes are incubated at 4° C. for 15 minutes while gently agitating the microfuge tubes to allow the cells to lyse completely. […]
For each control or drug cell lysate sample to be evaluated, the reaction is started by adding phosphorylation buffer containing 10 μCi ^32P-γ-ATP solution (200 μM ATP, 4.5 mM MgCl; 5 mM KH2PO4; 5 mM K2HPO4;) to each mixture. […]

[4] = at high concentration (100 μM) against cGMP 2 μM

T1 sequence (O76074 46-539 limits assumed): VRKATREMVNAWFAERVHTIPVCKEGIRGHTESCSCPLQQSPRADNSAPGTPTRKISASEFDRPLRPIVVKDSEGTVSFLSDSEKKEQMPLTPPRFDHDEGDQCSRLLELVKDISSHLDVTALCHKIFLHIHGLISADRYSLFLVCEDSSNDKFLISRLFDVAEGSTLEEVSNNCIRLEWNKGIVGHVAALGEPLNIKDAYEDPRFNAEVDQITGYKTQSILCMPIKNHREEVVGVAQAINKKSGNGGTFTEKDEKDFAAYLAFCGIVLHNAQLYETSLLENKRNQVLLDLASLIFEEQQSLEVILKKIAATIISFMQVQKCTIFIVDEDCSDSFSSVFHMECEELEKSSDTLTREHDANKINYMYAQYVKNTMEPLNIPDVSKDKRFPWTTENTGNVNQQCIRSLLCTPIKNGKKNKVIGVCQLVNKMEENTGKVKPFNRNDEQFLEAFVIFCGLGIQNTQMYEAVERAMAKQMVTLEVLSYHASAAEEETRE

SMILES: CCCOc1ccccc1-c1nc2nn[nH]c2c(=O)[nH]1 [zaprinast]
competition with cGMP for the cGMP binding sites of GST-cGB-PDE5 ([1]; 3H-cGMP 2 μM, 22° C., 1 hour): None of the PDE5 inhibitors showed any competition with cGMP

SMILES: Nc1ncnc2c1ncn2[C@@H]1O[C@@H]2COP(=O)(O)O[C@H]2[C@H]1O [Cyclic AMP]
competition with cGMP for the cGMP binding sites of GST-cGB-PDE5 [1]: did not compete with cGMP in binding

competition with cGMP for the cGMP binding sites of GST-cGB-PDE5 ([1]; 3H-cGMP 2 μM, 22° C., 1 hour): did not compete with cGMP in binding
SMILES: CCCCOC1C2OP(=O)(O)OCC2OC1n1cnc2c(N)ncnc21 (stereo not drawn) [2′-O-butyl-cAMP]

SMILES: Clc1cccc(Nc2nnc(-c3ccccc3)c3ccccc23)c1 [MY-5445, 1-(3-chloroanilino)-4-phenyphthalazine]
JNK1 activation by cGMP modulators [2]: also activated JNK1

SMILES: CCCC(=O)Nc1nc2c(ncn2C2OC3COP(=O)([O-])OC3C2OC(=O)CCC)c(=O)[nH]1.[Na+] (stereo not drawn) [dbcGMP, Dibutyrylguanosine 3′:5′-cyclic monophosphate]
JNK1 activation by cGMP modulators [2]: activated JNK1

Kd [1]: 1600 ± 200 nM
competition with cGMP for the cGMP binding sites of GST-cGB-PDE5 ([1]; 3H-cGMP 2 μM, 22° C., 1 hour): specifically binds GST-cGB-PDE5 protein
SMILES: Nc1nc2c(ncn2[C@@H]2O[C@@H]3COP(=O)(O)O[C@H]3[C@H]2O)c(=O)[nH]1 [cGMP, cyclic 3′,5′-guanosine monophosphate]
Kd (native bovine PDE5): 1300 nM

SMILES: OCCN(CCO)c1nc(N2CCCCC2)c2nc(N(CCO)CCO)nc(N3CCCCC3)c2n1 [dipyridamole]
JNK1 activation by cGMP modulators [2]: also activated JNK1

SMILES: Nc1nc2c(nc(Sc3ccc(Cl)cc3)n2[C@@H]2O[C@@H]3CO[P@@](=O)(S)O[C@H]3[C@H]2O)c(=O)[nH]1 [Rp-8-pCPT-cGMP, reference compound]
inhibition of Compound B-induced JNK1 activation [2]: strongly inhibited
inhibition of Compound A-induced PARP cleavage (PARP in SW480 cells): significantly inhibited

SMILES: CCCC(=O)Nc1ncnc2c1ncn2[C@@H]1O[C@@H]2COP(=O)(O)O[C@H]2[C@H]1OC(=O)CCC [dbcAMP, dibutyryladenosine 3′:5′-cyclic monophosphate]
JNK1 activation by cGMP modulators [2]: inactive

competition with cGMP for the cGMP binding sites of GST-cGB-PDE5 ([1]; 3H-cGMP 2 μM, 22° C., 1 hour): did not compete with cGMP in binding
SMILES: O=c1ccn([C@@H]2O[C@@H]3COP(=O)(O)O[C@H]3[C@H]2O)c(=O)[nH]1 [cUMP, cyclic UMP]

SMILES: OCc1ccc(-c2nn(Cc3ccccc3)c3ccccc23)o1 [YC-1]
JNK1 activation by cGMP modulators [2]: also activated JNK1

competition with cGMP for the cGMP binding sites of GST-cGB-PDE5 ([1]; 3H-cGMP 2 μM, 22° C., 1 hour): did not compete with cGMP in binding
SMILES: CCCCOC1C2OP(=O)(O)OCC2OC1n1cnc2c(=O)[nH]c(N)nc21 (stereo not drawn) [2′-O-butyl-cGMP]

competition with cGMP for the cGMP binding sites of GST-cGB-PDE5 [1, 4]: can partially compete with cGMP
SMILES: Nc1nc2c(nc(Br)n2[C@@H]2O[C@@H]3COP(=O)(O)O[C@H]3[C@H]2O)c(=O)[nH]1 [Compound 8-bromo-cGMP, 8-bromo-cGMP]

competition with cGMP for the cGMP binding sites of GST-cGB-PDE5 [1, 4]: can partially compete with cGMP
SMILES: O=c1[nH]cnc2c1ncn2[C@@H]1O[C@@H]2COP(=O)(O)O[C@H]2[C@H]1O [Cyclic IMP, cyclic IMP]

SMILES: O=C([O-])C1CCN(c2nc(NCc3ccc4c(c3)OCO4)c3cc(Cl)ccc3n2)CC1.[Na+] [Compound E4021]
competition with cGMP for the cGMP binding sites of GST-cGB-PDE5 ([1]; 3H-cGMP 2 μM, 22° C., 1 hour): None of the PDE5 inhibitors showed any competition with cGMP
PKG activity relative to control [3]: do not exhibit PKG activation relative to control

competition with cGMP for the cGMP binding sites of GST-cGB-PDE5 ([1]; 3H-cGMP 2 μM, 22° C., 1 hour): did not compete with cGMP in binding
SMILES: Nc1ccn([C@@H]2O[C@@H]3COP(=O)(O)O[C@H]3[C@H]2O)c(=O)n1 [cCMP, cyclic CMP]

SMILES: CCCCCCOC(=O)[C@]1(O)C[C@@H]2O[C@@]1(C)n1c3ccccc3c3c4c(c5c6ccccc6n2c5c31)C(=O)NC4 [KT5720]
inhibition of Compound B-induced JNK1 activation [2]: no inhibitory activity
